Key:
HCVpp 2a = HCVpp 2a infection of Huh-7 cells, 96-well (luciferase); assay type: cell-based, HCV; settings: Hepatitis C virus, Huh-7, 30 h, read-out: IC50 HCVpp
Description: (§1) Pseudotyped retroviral particles harboring HCV envelope proteins (HCVpp) from different genotypes were produced as described previously. A plasmid encoding the feline endogenous virus RD114 glycoprotein [35] was used for the production of RD114pp. Both HCVpp and RD114pp expressed Firefly luciferase.
(§2) To identify ligands that inhibit HCV infection, Huh-7 cells were seeded in 96-well plates and treated the day after with six different concentrations of each ligand diluted in DMSO in duplicate using a Zephyr automated liquid handling workstation (Caliper BioSciences, Hopkinton, Mass.). The final concentration of DMSO (1%) was adjusted to be the same for all ligand concentrations. Cells treated with DMSO were used as negative controls. Cells treated with different concentrations of anti-CD81 (JS-81 from BD Pharmingen, San Jose, Calif.) 1 hour before infection, were also used as positive controls. The third day, RD114pp, HCVpp or HCVcc were inoculated and incubated for 30 hours at 37° C. Firefly and Gaussia luciferase assays were performed as indicated by the manufacturer (Promega, San Luis Obispo, Calif.).
(§3) The remaining ligands were next tested against pseudotyped retroviral particles harboring genotype-2a HCV envelope proteins (HCVpp 2a), cell culture produced HCV particles (HCVcc) or RD114pp. As a positive control, an anti-CD81 antibody was used in parallel.

RD114pp = RD114pp infection of Huh-7 cells (luciferase); assay type: cell-based, feline endogenous virus RD114; settings: Feline endogenous virus RD114, Huh-7, 30 h, read-out: IC50 RD114pp
Description: as §1, §2
Pseudotyped retroviral particles harboring the envelope protein of an endogenous feline retrovirus (RD114pp) were first used to determine the specificity and the safety of molecules.

HCVcc = HCVcc infection of Huh-7 cells (Gaussia luciferase); assay type: cell-based, HCV; settings: Hepatitis C virus, Huh-7, 30 h, read-out: IC50 HCVcc
Description: The cell culture-produced HCV particles (HCVcc) used in this study were based on the JFH1 strain [36] and were prepared as described previously. They were engineered to express the A4 epitope, titer-enhancing mutations and Gaussia luciferase.
as §2, §3

recombinant E2 protein = target: T1, recombinant E2 protein (Hepatitis C virus genotype 1b, UniProt Q9WMX2); assay: Surface plasmon resonance (Biacore T100) binding to recombinant E2 immobilized on CM5 chip; settings: for Binding (RU): 200 μM ligand in PBS, 3 min association; for rate of ligand dissociation (in words): compared to the other ligands; for Dissociation 1 (RU): response remaining 10 sec after rinsing with buffer; for Dissociation 2 (RU): response remaining 50 sec after rinsing with buffer
T1 construct: encoding amino acids 384-656 of the Con1 envelope protein 2 ectodomain (eE2); made in house; host or cells: HEK293T cells (lentiviral, secreted)
T1 sequence (Q9WMX2 384-656): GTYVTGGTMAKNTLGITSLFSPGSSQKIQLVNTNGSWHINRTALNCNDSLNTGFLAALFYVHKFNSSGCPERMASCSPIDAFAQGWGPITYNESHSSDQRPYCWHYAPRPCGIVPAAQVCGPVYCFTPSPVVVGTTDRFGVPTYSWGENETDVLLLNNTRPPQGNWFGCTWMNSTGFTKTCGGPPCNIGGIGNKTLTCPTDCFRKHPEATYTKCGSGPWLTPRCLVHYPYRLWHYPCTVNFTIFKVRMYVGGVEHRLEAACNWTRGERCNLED
Text: A construct containing the sequence encoding amino acids 384-656 of the Con1 envelope protein 2 ectodomain (eE2), a genoptype 1 E2 sequence, was cloned into a lentiviral expression vector with a carboxy-terminal Protein A tag separated by a PreScission Protease cleavage consensus sequence. eE2-ProtA was stably expressed in HEK293T cells using lentiviral infection. The protein was secreted into the media and supernatants were purified using IgG Sepharose (GE Healthcare, Piscataway, N.J.). eE2-ProtA was eluted with 100 mM sodium citrate and 20 mM KCl at pH 3 directly into tubes containing 1M Tris pH 9 for immediate neutralization. PreScission Protease was added to the eluted sample at a ratio of 1:50 (enzyme:eE2), and the digest was then dialyzed into 20 mM HEPES pH 7.5, 250 mM NaCl, 5% glycerol. eE2 was separated from the cleaved tag and the PreScission Protease by ion exchange chromatography.
The set of 34 of the ligands predicted by AutoDock to bind to E2 were tested experimentally to determine if they bind to recombinant E2 protein immobilized on a chip using surface Plasmon resonance. The SPR analyses were performed using a Biacore T100 workstation (GE Healthcare, NJ, USA) and Prot-A-tagged HCV E2 protein. 1 μM ProtA-HCV E2 was diluted into 10 mM sodium acetate buffer pH 5 and immobilized for 15 min at a flow speed of 5 μl/min onto a CM5 sensor chip using amine coupling (EDC-NHS). Approximately 10,000 response units (RU) of protein were immobilized on the chip. His-CD81-LEL (Bioclone-CA/USA) binding to HCV E2 was tested prior to injecting the ligands to confirm the E2 protein was functional and would bind CD81-LEL. In a typical experiment with CD81, […] of his-CD81 in 114 μl PBS was injected into channel 2 and 106.4 RUs of CD81 bound to the E2 on the chip. This was followed by testing the binding of the 34 virtual screening hits where the ligands were prepared as 200 μM solutions in PBS and they were introduced to the protein using a pre-programmed 3 min association and 1 min dissociation interval. The response was measured at two time points during dissociation, 10 and 50 seconds, to obtain information on the rate of ligand dissociation from E2. Twenty-three of the ligands predicted by AutoDock to bind to E2 were observed by SPR to bind to the recombinant protein (Table 2). The measured responses for the ligands that bound varied from 54 to 276 RUs. Data was also obtained on the rate of ligand dissociation by measuring the amount of ligand remaining bound at two time points, dissociation 1 (10 seconds) and dissociation 2 (50 seconds), during the rinsing of the chip with buffer (FIG. 8). The majority of the ligands dissociated quickly, as one might expect for small molecules that bind to the surface of a protein.

E2 = E2 (Hepatitis C virus genotype 1a, UniProt P27958); assay: Binding of CD81 ligand 73735 to E2 (method not given); design: species or system HCV
E2, sequence (P27958 384-746): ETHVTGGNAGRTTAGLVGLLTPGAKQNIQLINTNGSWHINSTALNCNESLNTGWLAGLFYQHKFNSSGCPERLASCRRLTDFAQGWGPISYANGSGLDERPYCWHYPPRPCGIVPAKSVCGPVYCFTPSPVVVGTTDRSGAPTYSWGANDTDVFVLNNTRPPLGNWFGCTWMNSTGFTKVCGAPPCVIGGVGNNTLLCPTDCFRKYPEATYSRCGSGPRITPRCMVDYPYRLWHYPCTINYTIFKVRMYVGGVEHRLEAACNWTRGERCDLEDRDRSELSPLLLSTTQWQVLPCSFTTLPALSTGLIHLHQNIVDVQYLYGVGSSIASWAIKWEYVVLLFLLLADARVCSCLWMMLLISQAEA

| SMILES | IC50 (HCVpp 2a) | IC50 (RD114pp) | IC50 (HCVcc) | Binding (RU) (recombinant E2 protein) | rate of ligand dissociation (in words) (recombinant E2 protein) | Dissociation 1 (RU) (recombinant E2 protein) | Dissociation 2 (RU) (recombinant E2 protein) | binding to E2 (in words) (E2) |
| --- | --- | --- | --- | --- | --- | --- | --- | --- |
| O=S(=O)(F)c1ccc2nc(-c3cccc(Sc4ccccc4)c3)cc(Cl)c2c1 [Ligand 158413, 4-chloro-2-(3-phenylsulfanylphenyl) quinoline-6-sulfonyl fluoride] | > 10 µM | > 10 µM | > 10 µM | 71.2 RU | slower off rates | 10.3 RU | 8.5 RU | – |
| NC1=Nc2ccccc2C(=O)[N+]1=C(N)N [Ligand 403379, 2-amino-3-(diaminomethylidene) quinazolin-3-ium-4-one] | > 10 µM | > 10 µM | > 10 µM | 58 RU | – | 2.8 RU | 1.1 RU | – |
| Nc1nc(N)nc(-c2ccccc2-c2nc(N)nc(N)n2)n1 [Ligand 4429, 6-[2-(4,6-diamino-1,3,5-triazin-2-yl)phenyl]-1,3,5-triazine-2,4-diamine] | > 10 µM | > 10 µM | > 10 µM | 155.3 RU | slower off rates | 28.9 RU | 14.2 RU | – |
| COc1cc(-c2ccc(Nc3ccccc3C(=O)O)c(OC)c2)ccc1Nc1ccccc1C(=O)O [Ligand 73735] | – | – | – | – | – | – | – | determined to bind to E2 |
| CCCc1nc(NC(=O)c2ccccc2)nc(NC(=O)c2ccccc2)n1 [Ligand 359472, N-(4-benzamido-6-propyl-1,3,5-triazin-2-yl)benzamide] | > 10 µM | > 10 µM | > 10 µM | 62 RU | – | 2.5 RU | 0.8 RU | – |
| Cc1cc(-c2ccc(N3C(=O)CC4(CCCC4)C3=O)c(C)c2)ccc1N1C(=O)CC2(CCCC2)C1=O [Ligand 308835, 2-[4-[4-(1,3-dioxo-2-azaspiro[4.4]nonan-2-yl)-3-methylphenyl]-2-methylphenyl]-2-azaspiro[4.4]nonane-1,3-dione] | > 10 µM | > 10 µM | > 10 µM | 64.8 RU | – | 7.1 RU | 5.2 RU | – |
| NC(=O)C(=Cc1ccncc1)c1cccc2ccccc12 (stereo in doubt) [Ligand 144694, (E)-2-naphthalen-1-yl-3-pyridin-4-ylprop-2-enamide] | > 10 µM | > 10 µM | > 10 µM | 118.8 RU | – | 6 RU | 2.3 RU | – |
